In US5614562A, “Method of treating drug resistant tumor cells using organoselenones” (The University of Sourthern California, priority 1992, dated 1997):
Converted amounts (≈) assume the structure as drawn.

Columns and labels:
[1] = methanol, 35° C.; cited from earlier work
[2] = literature value; cited from earlier work
L1210/0 = test: Cytotoxicity, 48-hr exposure of L1210/0 leukemia cells; assay type: cell-based, murine; conditions: Mus musculus, L1210/0; 48-hr exposure; read-out: IC50 L1210/0
Text: (§1) Murine L1210 leukemia cells sensitive (L1210/0) and resistant (L1210/L-PAM)to L-phenylalanine mustard were obtained that are adaptable to either in vitro or in vivo passage.
(§2) Broad resistance of the L1210/L-PAM cell line is shown by the approximately 4-fold and 9-fold increases in IC50, compared to L1210/0, for L-PAM and mechlorethamine, respectively (Comparative Examples 3 and 4). […].

[3] = Swain-Scott product competition of nitrogen and oxygen nucleophiles vs NBP (second-order rate constant ratios); assay type: physicochemical; conditions: for log(kN/knbp): N3^- vs NBP, 37° C., 10 h, 52% aqueous acetone, mean ± S.D.
Text: (§3) The properties of nucleophilicity and electivity can be quantitatively expressed as n and s constants in the Swain-Scott linear free energy relationship. It has been shown that s and n constants of biological alkylating agents and nucleophiles, respectively, can be readily determined with high precision, using 4-(4-nitrobenzyl)pyridine (NBP) as a competitive substrate for alkyl product formation (Spears, C. P. Mol. Pharmacl.19:496-504,1981; Barbin,A.,Bereziat, A., O'Neill, I. K., and Bartsch, H. Chem.-Biol. Interact,73:261-277, 1990; Kang, S. I., and Spears,C. P. J. Med. Chem. 33:1544-1547, 1990). Broad-spectrum antitumor alkylating agents show uniformly high s constants Spears, C. P. Mol.Pharmacol. 19:496-504, 1981; in contrast, mutagenically efficient alkylating agents show low values (Peterson,A. R., Landolph, J. R., Peterson, H., Spears, C. P., and Heidelberger, C. Cancer Res. 41:3095-3099, 1981; Barbin, A., and Bartsch, H. Mut. Res.215:95-106, 1989).
(§4) FIG. 1 is a Swain-Scott plot of the ratio of second-order rate constants, log (ky /knbp) for several model sulfur, nitrogen, and oxygen nucleophiles in their reactions with 2-chloroethyl 4-methoxy-phenyl selenone ("CEMOS"), vs. their published nucleophilicity nCH3 Br constants. Values of n were taken to be 2.72 for acetate (AcO--), 3.3 for ascorbate, 3.6 for pyridine, 4.0 for azide (N3), 3.94 for nitrite, 5.1 for thiol (SH), 6.18 for sulfite (SO3^2-), 6.36 for thiosulfate (S2 O3^2-), and 6.6 for thiophosphate (HPSO3^2-) (derived from the Ogston "Competition Factor") (Ogston, A. G., Holiday, E. R., Philpot, J. S. L., and Stocken, L. A. Trans.Faraday Soc. 44:45-52, 1948).
The slope of the linear regression equation through the 5 nitrogen and oxygen nucleophiles gives a Swain-Scott selectivity constant, s, equal to 1.79, by Eq. A, shown in FIG. 1:
(§5) ^a By competition between S2 O3^2- and NBP log(kS
(§6) /knbp) or N3^- and NBP log(kN /knbp ) at
(§7) 37° C. and 10 h, in 52% aqueous acetone, using initial
(§8) concentrations of 0.0435 mM and 0.0217 mM of 2chloroethyl phenyl selenone
(§9) and nornitrogen mustard, respectively, as described. Values, experimental

L1210/L-PAM = test: Cytotoxicity, 48-hr exposure of L-PAM resistant L1210/L-PAM leukemia cells; assay type: cell-based, murine; conditions: 48-hr exposure; for IC50: Mus musculus, L1210/LPAM, read-out: IC50 L1210/L-PAM
Text: as §1, §2

HCT/VP35 = test: In vitro cytotoxicity, VP16 resistant HCT/VP35 human colon carcinoma; assay type: cell-based; conditions: for IC50: Homo sapiens, HCT/VP35, VP16 resistant, data provided by Bristol-Myers Laboratories; for ratio of IC50 values HCT/VP35 vs HCT116: IC50 divided by IC50 for HCT116
Text: | HCT/VP35 human colon, VP16 resistant

[4] = assay type: physicochemical
[5] = test system: P388 murine leukemia ascites cells; test: In vivo growth inhibition of P388 leukemia ascites in mice; design: species or system murine; BDF1 mice
Procedure: In FIG. 2 and Table II are shown the results of in vivo antitumor testing of 2-chloroethyl aryl selenones against murine P388 Leukemia ascites cells.
Examples 5-8 consisted of the use of 2-chloroethyl 4-methoxy-phenyl selenone to treat the mice. Examples 9-12 were the same as example 5 except 2-chloroethyl phenyl selenone was employed.
(§10) The maximally tolerated duration of the highest dose shown in FIG. 2 and Table II, 6 mg/kg/day i.p. of 2-chloroethyl phenyl selenone, was 10 days in a separate experiment. In the experiments shown, i.p. drug was administered for 5 consecutive days, Days 1-5, beginning the day after tumor inoculation (on Day 0).
Mice were inoculated i.p. with 1×10^6 cells of P388 murine leukemia ascites passaged in BDF1 mice, in a volume of 0.1 ml. The selenones were formulated in normal (0.9%, w/v) NaCl for an injection volume of 0.3 ml. Control mice (12 in each group) received i.p. saline alone comparative examples 1 and 2. For each dose level and drug, 6 mice per group were used.
The plateauing of weight increase, at Days 8-9, is consistent with classical Gompertizian tumor growth kinetics (Laird, A. K. Brit. J. Cancer 18:490-502, 1964). The delays observed in the time period before the onset of the exponential phase of weight increase are given in Table II, defined as the Growth Delay.
^a Calculated from Day at which weight first exceeded baseline (Day 0

[6] = Swain-Scott product competition of sulfur nucleophiles vs NBP (second-order rate constant ratios); assay type: physicochemical; conditions: for log(kS/knbp): S2O3^2- vs NBP, 37° C., 10 h, 52% aqueous acetone, mean ± S.D.
Text: as §3, §4
Extrapolation of Eq. A predicts that the log (ky /knbp) values for the thiol nucleophiles should have ranged from 3 to 5. However, the measured ratios of second-order rate constants were approximately 100-fold lower than this expectation. Also, the linear regression relationship, Eq. B (FIG. 1), for correlation of log (ky /knbp) values vs. nCH3 Br constants gave a sulfur nucleophile selectivity constant, s, equal to 0.84, approximately one-half of the value for reaction with nitrogen and oxygen nucleophiles:
as §5, §6, §7, §8, §9

HCT116 = test: In vitro cytotoxicity, HCT116 human colon carcinoma; assay type: cell-based; conditions: Homo sapiens, HCT-116; data provided by Bristol-Myers Laboratories
Text: ^b Cell lines: HCT116 human colon (sensitive to VP16 and VM26)

HCT/VM46 = test: In vitro cytotoxicity, VM26 resistant HCT/VM46 human colon carcinoma; assay type: cell-based; conditions: for IC50: Homo sapiens, VM26 resistant, data provided by Bristol-Myers Laboratories; for ratio of IC50 values HCT/VM46 vs HCT116: IC50 divided by IC50 for HCT116
Text: | HCT/VM46 human colon, VM26 resistant

[7] = test system: HT29 human colon carcinoma cells; test: Growth inhibition cytotoxicity against HT29 human colon carcinoma cells (MER(+)); assay type: cell-based; conditions: HT-29
Text: (Example 15) These cells are very high in the alkyltransferase enzyme for repair of DNA guanine O6-alkyl products, and therefore are considered strongly MER(+) in phenotype. Levels of this enzyme in HT29 cells have averaged about 0.5 pmol/mg protein in recent studies (K. Chan, et al., unpublished). […] Thus, the lack of cross-resistance to ethyleneimines by the present invention of 2-chloroethyl aryl selenones is not associated with resistence mediated by the alkyltransferase repair enzyme.

[8] = Acute intraperitoneal toxicity / maximally tolerated dose in mice; assay type: in vivo; conditions: 6 mg/kg/day i.p., separate experiment
Procedure: as §10

[9] = test system: 7 different human colon carcinoma cell lines; conditions: read-out: average IC50, NCI in vitro screen; cited from earlier work
[10] = 1.0 mg/kg daily i.p., Days 1-5 (total 5 mg/kg), Ex. 6, Ex. 9
[11] = 2.0 mg/kg daily i.p., Days 1-5 (total 10 mg/kg), Ex. 7, Ex. 10
[12] = 4.0 mg/kg daily i.p., Days 1-5 (total 20 mg/kg), Ex. 8, Ex. 11

**Q.** Which “reactivity in methylation of dimethylsulfide” value [1] does the source give for C[Se](=O)(=O)c1ccccc1 [PhSeO2 CH3] here?
**A.** three times as reactive as methyl iodide

**Q.** For COc1ccc([Se](=O)(=O)CCCl)cc1 [2-chloroethyl 4-methoxy-phenyl selenone], which “alkylating activity reported (Kang and Spears 1990)” value [2] is on record?
**A.** 100%

**Q.** And the IC50 (L1210/0)?
**A.** 360 nM

**Q.** What about the “Swain-Scott selectivity constant, s (nitrogen and oxygen nucleophiles)” value ([3]; 5 nitrogen and oxygen nucleophiles, Eq. A, FIG. 1) of the same compound?
**A.** 1.79

**Q.** And the “susceptibility to aqueous hydrolysis” value ([3]; from intercept of Eq. A)?
**A.** extremely low susceptibility

**Q.** What about the “log (ky/knbp) at n=3.6” value ([3]; n=3.6 (pyridine)) of the same compound?
**A.** nearly zero

**Q.** What about the “intercept of Eq. A, log (ky/knbp) vs. nCH3Br” value ([3]; nitrogen and oxygen nucleophiles, Eq. A, listed as CEMOS) of the same compound?
**A.** 6.40

**Q.** And the “Ratio of IC50s (L1210/L-PAM vs L1210/0)” value (L1210/L-PAM)?
**A.** 0.9

**Q.** And the IC50 (L1210/L-PAM)?
**A.** 360 nM

**Q.** What about the IC50 (HCT/VP35) of the same compound?
**A.** 0.6 µg/mL (≈ 2.13 µM)

**Q.** What about the “ratio of IC50 values HCT/VP35 vs HCT116” value (HCT/VP35) of the same compound?
**A.** 0.6

**Q.** And the “alkylating activity in the FIG. 1 experiments” value ([4]; FIG. 1 experiments)?
**A.** 103%

**Q.** What about the Growth delay ([5]; 0.5 mg/kg daily i.p., Days 1-5 (total 2.5 mg/kg), Ex. 5) of the same compound?
**A.** 0 days

**Q.** What about the Growth delay [5, 10] of the same compound?
**A.** 0 days

**Q.** And the Growth delay [5, 11]?
**A.** 3 days

**Q.** And the Growth delay [5, 12]?
**A.** 7 days

**Q.** And the relative antitumor effectiveness ([5]; vs. parent 2-chloroethyl phenyl selenone)?
**A.** less effective than the parent 2-chloroethyl phenyl selenone

**Q.** And the “selectivity within the thiol series” value [6]?
**A.** abnormally low

**Q.** What about the “measured ratios of second-order rate constants lower than expectation” value ([6]; sulfur nucleophiles vs. extrapolation of Eq. A) of the same compound?
**A.** approximately 100 fold

**Q.** And the “sulfur nucleophile selectivity constant, s” value ([6]; sulfur nucleophiles, Eq. B, FIG. 1)?
**A.** 0.84

**Q.** What about the IC50 (HCT116) of the same compound?
**A.** 1.01 µg/mL (≈ 3.59 µM)

**Q.** What about the IC50 (HCT/VM46) of the same compound?
**A.** 0.42 µg/mL (≈ 1.49 µM)

**Q.** What about the “ratio of IC50 values HCT/VM46 vs HCT116” value (HCT/VM46) of the same compound?
**A.** 0.4

**Q.** Which IC50 (L1210/0) does the source give for O=[Se](=O)(CCCl)c1ccccc1 [2-chloroethyl phenyl selenone] here?
**A.** 550 nM

**Q.** What about the IC50 [7] of the same compound?
**A.** 2800 nM

**Q.** And the maximally tolerated duration [8]?
**A.** 10 days

**Q.** And the “log(kN/knbp)” value [3]?
**A.** 1.95 ± 0.11

**Q.** What about the “log(kN/knbp)” value ([3]; listed as SKI-273) of the same compound?
**A.** 1.95±0.11

**Q.** What about the “Ratio of IC50s (L1210/L-PAM vs L1210/0)” value (L1210/L-PAM) of the same compound?
**A.** 0.9

**Q.** What about the IC50 (L1210/L-PAM) of the same compound?
**A.** 510 nM

**Q.** What about the IC50 [9] of the same compound?
**A.** 2300 ± 1600 nM

**Q.** What about the IC50 (HCT/VP35) of the same compound?
**A.** 0.82 µg/mL (≈ 3.26 µM)

**Q.** And the “ratio of IC50 values HCT/VP35 vs HCT116” value (HCT/VP35)?
**A.** 0.8

**Q.** What about the “AA (alkylating activity, absorption at 560 nm)” value ([4]; alkalinized alkyl-NBP, mean ± S.D.) of the same compound?
**A.** 0.75 ± 0.004

**Q.** And the “alkylating activity relative to mechlorethamine HCl” value ([4]; mechlorethamine HCl = 100%)?
**A.** 140%

**Q.** And the “alkylating activity, percent of nor-nitrogen mustard” value ([4]; relative to nor-nitrogen mustard)?
**A.** 170%

**Q.** And the Growth delay [5, 10]?
**A.** 4 days

**Q.** What about the “inhibition of tumor growth by the lowest dose tested” value ([5]; 1 mg/kg/d i.p.) of the same compound?
**A.** inhibition of tumor growth

**Q.** And the Growth delay [5, 11]?
**A.** 7 days

**Q.** And the Growth delay [5, 12]?
**A.** 8 days

**Q.** What about the Growth delay ([5]; 6 mg/kg daily i.p., Days 1-5 (total 30 mg/kg), Ex. 12) of the same compound?
**A.** 11 days

**Q.** And the “log(kS/knbp)” value [6]?
**A.** 1.77 ± 0.05

**Q.** And the “log(kS/knbp)” value ([6]; listed as SKI-273)?
**A.** 1.77±0.05

**Q.** What about the IC50 (HCT116) of the same compound?
**A.** 1.02 µg/mL (≈ 4.05 µM)

**Q.** And the IC50 (HCT/VM46)?
**A.** 0.44 µg/mL (≈ 1.75 µM)

**Q.** What about the “ratio of IC50 values HCT/VM46 vs HCT116” value (HCT/VM46) of the same compound?
**A.** 0.4
